“Also recorded” adds a separate entry of the source.
Tests used:
[1] = Gel formation of (RADA)4 solutions mixed with dextran sulfate solution; format: physicochemical; settings: 1%-3% solutions mixed with dextran sulfate solution (0.5 and 1%)
[2] = test system: stomach and esophagus of pigs (submucosal space); experiment: Submucosal cushion/lift and hemostasis in endoscopic resection procedures in a porcine model; format: in vivo
Protocol: Solutions of (RADA)4 (RADARADARADARADA; SEQ ID NO: 1) in water were prepared. Concentrations of (RADA)4 (SEQ ID NO: 1) were between from 1% and 3% w/v. Methylene blue or indigo carmine dye (0.1 to 0.4%) was added to the solution in some experiments, and excluded from the solution in other experiments.
Pigs were randomly assigned to control or experimental groups. Animals were anesthetized. Multiple (>20) endoscopic procedures (EMD and ESD) were performed in different areas of the stomach of pigs, including the pylorus, and the esophagus, including the sphincter. In some experiments, polyps had previously been created by applying bands to the mucosa.
The (RADA)4 (SEQ ID NO: 1) solutions (experimental animals) or saline or ELEVIEW™ (control animals) were administered into the submucosal space through 2.2 mm channel diameter, 230 cm long catheters that have either 25 gauge needle tips or spray tips on the end to form a cushion. In some experiments, catheters having different diameters were used as well as multiple internal channels. The products were delivered from a prefilled syringe or mixed from a kit prior to delivery.

With RADARADARADARADA [(RADA)4] as the sequence, how does the gel formation [1] read?
Its gel formation is “formed space occupying gels”.

What about the “duration of submucosal lift” value ([2]; pig gastric antrum, delivered through 25G endoscopic injection needle) of the same sequence?
The value was over 2 h.

And the “use with clips as sealant at post-polypectomy site” value ([2]; pig, applied following application of clips)?
The value was “useful in conjunction with clips as a potential sealant”.

And the “hemostasis in actively bleeding lesions” value ([2]; pig, applied topically or injected into mucosa near the bleeding site, with or without visualizing agent)?
The value was “provide hemostasis in actively bleeding lesions; also recorded: stopped bleeding promptly, typically within seconds”.

And the “durability of cushions versus controls” value ([2]; pig, compared with ELEVIEW™ and saline)?
Its value is “lasting longer than ELEVIEW™ and saline controls”.

What about the “bleeding after polyp removal / tissue resection” value ([2]; pig, submucosal injection before dissection (prophylactic hemostasis)) of the same sequence?
Its value is “no visible bleeding was observed following polyp removal; also recorded: minimal to no bleeding in most lesions was observed”.

What about the “time over which the tunnel opening could easily be found after removing and reinserting equipment” value ([2]; pig, submucosal tunnel through cushion) of the same sequence?
Its value is “typically more than an hour”.

Source: patent US12390552B2, “Self-assembling peptide gel formulation and methods of use” (Arch Biosurgery, Inc., priority 2020, dated 2025)
